Experimental data from ChEMBL document CHEMBL4680269, “N-benzylpiperidinol derivatives as novel USP7 inhibitors: Structure-activity relationships and X-ray crystallographic studies” (Eur J Med Chem, 2020).
pIC50: −log10 of the molar value. Activity calls are given as the source filed them. The rule behind the calls is not given here.

These compounds were tested against T1, Ubiquitin carboxyl-terminal hydrolase 7 (Homo sapiens, UniProt Q93009) (assay: Inhibition of recombinant human N-terminal His6-tagged full length USP7 expressed in baculovirus infected Sf21 cells at 10 uM using monoubiquitinated ubiquitin-rhodamine as substrate incubated for 30 mins followed by Ub-Rho addition and measured after 2 hrs by spectrophotometry relative to control). Settings: time 2.5 hrs.
Target sequence in this assay (Q93009 whole entry, looked up): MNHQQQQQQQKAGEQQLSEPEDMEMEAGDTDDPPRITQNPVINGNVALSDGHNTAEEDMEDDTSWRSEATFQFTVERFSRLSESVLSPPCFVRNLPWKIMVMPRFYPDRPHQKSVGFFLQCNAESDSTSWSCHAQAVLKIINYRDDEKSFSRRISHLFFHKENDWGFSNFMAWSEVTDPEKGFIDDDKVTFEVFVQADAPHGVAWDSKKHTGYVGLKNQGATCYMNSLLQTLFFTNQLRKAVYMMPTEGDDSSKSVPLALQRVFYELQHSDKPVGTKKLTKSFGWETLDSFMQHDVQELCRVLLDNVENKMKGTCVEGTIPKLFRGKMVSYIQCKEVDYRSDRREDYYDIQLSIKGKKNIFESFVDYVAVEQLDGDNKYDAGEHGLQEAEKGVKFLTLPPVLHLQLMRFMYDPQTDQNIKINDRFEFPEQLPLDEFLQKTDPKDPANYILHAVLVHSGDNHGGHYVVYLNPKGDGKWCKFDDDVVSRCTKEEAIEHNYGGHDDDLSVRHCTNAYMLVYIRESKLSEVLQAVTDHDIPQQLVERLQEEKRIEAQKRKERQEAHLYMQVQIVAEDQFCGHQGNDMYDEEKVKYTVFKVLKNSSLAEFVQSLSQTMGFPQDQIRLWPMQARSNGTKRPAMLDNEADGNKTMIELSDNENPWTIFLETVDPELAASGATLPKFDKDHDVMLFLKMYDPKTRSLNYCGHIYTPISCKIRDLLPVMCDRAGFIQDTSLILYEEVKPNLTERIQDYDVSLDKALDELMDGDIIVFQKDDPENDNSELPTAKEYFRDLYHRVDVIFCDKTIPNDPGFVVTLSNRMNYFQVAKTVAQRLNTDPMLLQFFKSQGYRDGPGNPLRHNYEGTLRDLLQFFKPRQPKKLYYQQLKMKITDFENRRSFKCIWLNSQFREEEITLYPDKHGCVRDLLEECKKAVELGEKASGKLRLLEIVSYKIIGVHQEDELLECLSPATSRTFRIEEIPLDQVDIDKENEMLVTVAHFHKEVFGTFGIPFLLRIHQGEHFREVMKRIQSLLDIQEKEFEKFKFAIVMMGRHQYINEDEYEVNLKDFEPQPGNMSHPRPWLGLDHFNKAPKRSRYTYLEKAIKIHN

SMILES	inhibition
CCOC(=O)c1csc(N2CCC(O)(Cn3cnc4c(cnn4-c4ccc(F)cc4)c3=O)CC2)n1	inactive
O=c1c2cnn(-c3ccc(F)cc3)c2ncn1CC1(O)CCN(c2ccc3ccccc3n2)CC1	inactive
O=c1c2cnn(-c3ccc(F)cc3)c2ncn1CC1(O)CCN(c2cccc(C(F)(F)F)n2)CC1	inactive

Other lines, results leading:

inhibition	SMILES
inactive	O=Cc1cccc(N2CCC(O)(Cn3cnc4c(cnn4-c4ccc(F)cc4)c3=O)CC2)n1
32%	O=c1c2cnn(-c3ccc(F)cc3)c2ncn1CC1(O)CCN(c2ncccc2Cl)CC1
inactive	O=c1c2cnn(-c3ccc(F)cc3)c2ncn1CC1(O)CCN(c2nccs2)CC1
inactive	N#Cc1cccnc1N1CCC(O)(Cn2cnc3c(cnn3-c3ccc(F)cc3)c2=O)CC1
inactive	O=c1c2cnn(-c3ccc(F)cc3)c2ncn1CC1(O)CCN(c2ncccc2F)CC1
inactive	O=c1c2cnn(-c3ccc(F)cc3)c2ncn1CC1(O)CCN(c2ncccn2)CC1
32%	O=c1c2cnn(-c3ccc(F)cc3)c2ncn1CC1(O)CCN(c2ncccc2I)CC1
inactive	O=Cc1cccnc1N1CCC(O)(Cn2cnc3c(cnn3-c3ccc(F)cc3)c2=O)CC1
inactive	O=c1c2cnn(-c3ccc(F)cc3)c2ncn1CC1(O)CCN(c2ccccn2)CC1
32%	O=c1c2cnn(-c3ccc(F)cc3)c2ncn1CC1(O)CCN(c2ncccc2Br)CC1

Each compound was assayed against T1, Ubiquitin carboxyl-terminal hydrolase 7 (assay: Inhibition of recombinant human N-terminal His6-tagged full length USP7 expressed in baculovirus infected Sf21 cells using monoubiquitinated ubiquitin-rhodamine as substrate incubated for 30 mins followed by Ub-Rho addition and measured after 2 hrs by spectrophotometry). Settings: not given.
Target sequence in this assay (Q93009 whole entry): as the sequence (Q93009 whole entry, looked up) above

SMILES	pIC50
O=c1c2cnn(-c3ccc(F)cc3)c2ncn1CC1(O)CCN(Cc2ccc(F)cc2Cl)CC1	5.80
O=c1c2cnn(-c3ccc(F)cc3)c2ncn1CC1(O)CCN(Cc2ccccc2F)CC1	5.01
COC(=O)c1ccc(CN2CCC(O)(Cn3cnc4c(-c5ccc(CNC(C)=O)cc5)n(C)nc4c3=O)CC2)c(Cl)c1	6.92
COC(=O)c1ccc(CN2CCC(O)(Cn3cnc4c(cnn4-c4ccc(F)cc4)c3=O)CC2)c(F)c1	6.10
O=c1c2cnn(-c3ccc(F)cc3)c2ncn1CC1(O)CCN(Cc2ccc(Cl)cc2)CC1	5.10
COC(=O)c1ccc(CN2CCC(O)(Cn3cnc4c(-c5ccc(CNC(=O)OC(C)(C)C)cc5)n(C)nc4c3=O)CC2)c(Cl)c1	6.68
O=c1c2cnn(-c3ccc(F)cc3)c2ncn1CC1(O)CCN(Cc2ccc(Br)cc2Cl)CC1	5.72
O=c1c2cnn(-c3ccc(F)cc3)c2ncn1CC1(O)CCN(Cc2ccccc2Br)CC1	5.51
COC(=O)c1ccc(CN2CCC(O)(Cn3cnc4c(cnn4-c4ccc(F)cc4)c3=O)CC2)c(Br)c1	6.05
O=c1c2cnn(-c3ccc(F)cc3)c2ncn1CC1(O)CCN(Cc2ccccc2Cl)CC1	5.47
O=c1c2cnn(-c3ccc(F)cc3)c2ncn1CC1(O)CCN(Cc2ccc(Br)cc2)CC1	5.17
O=c1c2cnn(-c3ccc(F)cc3)c2ncn1CC1(O)CCN(Cc2ccc(Cl)cc2Cl)CC1	5.48
O=c1c2cnn(-c3ccc(F)cc3)c2ncn1CC1(O)CCN(Cc2ccc([N+](=O)[O-])cc2)CC1	5.05
COC(=O)c1ccc(CN2CCC(O)(Cn3cnc4c(cnn4-c4ccc(F)cc4)c3=O)CC2)cc1	5.35
COC(=O)c1ccc(CN2CCC(O)(Cn3cnc4c(cnn4-c4ccc(F)cc4)c3=O)CC2)c(Cl)c1	6.10
COC(=O)c1ccc(CN2CCC(O)(Cn3cnc4c(Br)n(C)nc4c3=O)CC2)c(Cl)c1	6.81

Now from value to compound:

pIC50	SMILES
4.94	N#Cc1cc(Cl)ccc1CN1CCC(O)(Cn2cnc3c(cnn3-c3ccc(F)cc3)c2=O)CC1
5.09	N#Cc1ccccc1CN1CCC(O)(Cn2cnc3c(cnn3-c3ccc(F)cc3)c2=O)CC1
